Results: ChEMBL document CHEMBL3132768, “Design, synthesis and biological evaluation of TAR and cTAR binders as HIV-1 nucleocapsid inhibitors” (Medchemcomm, 2013)
Active and inactive are the calls of the source. The calls are words filed in the database; no cut-off is given here.

Experiments:
[1] = tested on: Nucleic Acid; assay: Binding affinity to HIV1 TAR/cTAR RNA/DNA duplex assessed as change in melting temperature by […]; assay type: nucleic-acid assay; conditions: Human immunodeficiency virus 1
[2] = tested on: Nucleic Acid; assay: Binding affinity to HIV1 TAR RNA assessed as change in melting temperature by […]; assay type: nucleic-acid assay; conditions: Human immunodeficiency virus 1
[3] = Inhibition of NC-induced HIV1 TAR destabilization assessed as change in melting temperature by fluorescence quenching assay; set-up: species or system Human immunodeficiency virus 1
[4] = Octanol-water partition co-efficient, log P of the compound by shake flask method; assay type: physicochemical
[5] = tested on: Human immunodeficiency virus 1; assay: Antiviral activity against HIV1 infected in human Jurkat cells assessed as inhibition of viral replication after 3 to 4 days; assay type: functional, organism-based
[6] = Inhibition of NC-induced HIV1 TAR/cTAR annealing assessed as change in melting temperature preincubated for 15 mins before NC addition measured after 15 mins by gel electrophoresis; set-up: species or system Human immunodeficiency virus 1
[7] = Inhibition of NC-induced HIV1 cTAR destabilization assessed as change in melting temperature by fluorescence quenching assay; set-up: species or system Human immunodeficiency virus 1
[8] = tested on: Human immunodeficiency virus 1; assay: Binding affinity to HIV1 cTAR DNA assessed as change in melting temperature by […]
[9] = tested on: Jurkat; assay: Cytotoxicity against human Jurkat cells up to 100 uM after 72 hrs by MTT assay; assay type: cell-based
[10] = tested on: Jurkat; assay: Drug uptake in human Jurkat cells at 100 uM after 3 hrs by spectrophotometry; assay type: ADME, cell-based
[11] = tested on: Human immunodeficiency virus 1; assay: Antiviral activity against HIV1 infected in human Jurkat cells assessed as inhibition of viral replication by CAT gene-based transcomplementation assay; assay type: functional, organism-based

| ΔTm [1] [°C] | ΔTm [2] [°C] | IC50 [3] [µM] | logP [4] | IC50 [6] [µM] | IC50 [7] [µM] | ΔTm [8] [°C] | Drug uptake [10] | SMILES | Activity [5] | Activity [9] | Activity [11] |
| --- | --- | --- | --- | --- | --- | --- | --- | --- | --- | --- | --- |
| 0.65 | 1.49 | 42.9 | -2.91 | 95.8 | 36.3 | 1.11 | – | O=C(CCNC(=O)C1CCNCC1)Nc1ccc2c(c1)C(=O)c1ccc(NC(=O)CCNC(=O)C3CCNCC3)cc1C2=O.O=C(O)C(F)(F)F.O=C(O)C(F)(F)F | inactive | Non-toxic | – |
| 1.77 | 8.95 | 6.3 | -2.55 | 44.1 | 7.1 | 10.5 | – | NCCC(N)C(=O)NCCC(=O)Nc1ccc2c(c1)C(=O)c1ccc(NC(=O)CCNC(=O)C(N)CCN)cc1C2=O.O=C(O)C(F)(F)F.O=C(O)C(F)(F)F.O=C(O)C(F)(F)F.O=C(O)C(F)(F)F (stereo unspecified) | inactive | Non-toxic | – |
| – | – | – | -2.51 | 42.3 | – | – | – | Nc1ccc(CC(N)C(=O)NCCC(=O)Nc2ccc3c(c2)C(=O)c2ccc(NC(=O)CCNC(=O)C(N)Cc4ccc(N)cc4)cc2C3=O)cc1.O=C(O)C(F)(F)F.O=C(O)C(F)(F)F.O=C(O)C(F)(F)F.O=C(O)C(F)(F)F (stereo unspecified) | inactive | Non-toxic | – |
| 0.28 | 2.38 | 21.4 | -2.56 | – | 22.8 | 1.92 | – | NCC(N)C(=O)NCCC(=O)Nc1ccc2c(c1)C(=O)c1ccc(NC(=O)CCNC(=O)C(N)CN)cc1C2=O.O=C(O)C(F)(F)F.O=C(O)C(F)(F)F.O=C(O)C(F)(F)F.O=C(O)C(F)(F)F (stereo unspecified) | inactive | Non-toxic | – |
| 0.84 | 0.97 | 17.6 | -2.31 | – | 13.7 | 1.86 | – | NCC1CCC(C(=O)NCCC(=O)Nc2ccc3c(c2)C(=O)c2ccc(NC(=O)CCNC(=O)C4CCC(CN)CC4)cc2C3=O)CC1.O=C(O)C(F)(F)F.O=C(O)C(F)(F)F (stereo unspecified) | inactive | Non-toxic | – |
| 1.12 | 2.79 | 10 | -2.98 | 76.8 | 11.8 | 2.14 | – | NCCC(=O)NCCC(=O)Nc1ccc2c(c1)C(=O)c1ccc(NC(=O)CCNC(=O)CCN)cc1C2=O.O=C(O)C(F)(F)F.O=C(O)C(F)(F)F | inactive | Non-toxic | – |
| 1.12 | 2.88 | 3.71 | – | 44.5 | 3.84 | 2.14 | Not Active | NCCCCC(N)C(=O)NCCC(=O)Nc1ccc2c(c1)C(=O)c1ccc(NC(=O)CCNC(=O)C(N)CCCCN)cc1C2=O (stereo unspecified) | – | – | – |
| 3.1 | 16.2 | 3.2 | -2.51 | 21.9 | 2.04 | 13.8 | – | NCCCC(N)C(=O)NCCC(=O)Nc1ccc2c(c1)C(=O)c1ccc(NC(=O)CCNC(=O)C(N)CCCN)cc1C2=O.O=C(O)C(F)(F)F.O=C(O)C(F)(F)F.O=C(O)C(F)(F)F.O=C(O)C(F)(F)F (stereo unspecified) | – | Non-toxic | inactive |
| 1.12 | 2.23 | 13.8 | -2.91 | – | 15.4 | 2.14 | – | NC1(C(=O)NCCC(=O)Nc2ccc3c(c2)C(=O)c2ccc(NC(=O)CCNC(=O)C4(N)CCNCC4)cc2C3=O)CCNCC1.O=C(O)C(F)(F)F.O=C(O)C(F)(F)F.O=C(O)C(F)(F)F.O=C(O)C(F)(F)F | inactive | Non-toxic | – |
